Data taken from patent US5856435A, “Nucleic acid-containing composition, its preparation and use” (Rhone-Poulenc Rorer SA, priority 1994, dated 1999).
≈ marks a conversion by molar mass, not a printed value. Residues, ends and D or L forms follow the SMILES beside them.

Columns and labels:
[1] = study of the dichroic spectra: secondary structures adopted by the cationic oligopeptides; type: physicochemical
Text: The capacity of the oligopeptides to form secondary structures may be verified by circular dichroism or in NMR, as shown in the examples.
Moreover, as shown in the Table below, a study of the dichroic spectra enabled the secondary structures adopted by the cationic oligopeptides used, in solution or after complexing, to be confirmed.

physchem = settings: water
[2] = solubility of the oligopeptide in water
[3] = system: T24/EJ cell line originating from a human bladder carcinoma; test: Transfer of nucleic acid into cells: inhibition of cell proliferation induced by the antisense nucleic acid; type: cell-based; settings: naked, 30 μM, 72 or 96 hours of culture
Protocol: The tests of nucleic acid transfer described in this example were performed on a cell line originating from a human bladder carcinoma, designated T24/EJ, available in the ATCC. The cells were cultured in MEM-EAGLE medium ("minimum essential medium", Biological Industries) supplemented with L-glutamine ((5 mM), streptomycin (50 u/ml) and penicillin (50 u/ml) in the presence of 7% of foetal calf serum decomplemented for 30 min at 60° C.
The cells (1500/well) were inoculated into 96-well microplates, in the absence or presence of nucleic acid, encapsulated or otherwise in nanoparticles, in a total volume of 100 μl. Each point was performed in triplicate. […]
In the first place, the incorporation of tritiated thymidine, which was determined after adding 2 μCi of 3 H thymidine per well. After 6 hours of incubation in an incubator, the plates were washed with a Skatron apparatus (Lier, Norway), the DNA was collected on a filter and each disc of the filter (corresponding to each well of the plate) was placed in scintillation fluid and then counted in a counter (LKB Wallac 1211 Minibeta). […]
Next, cell proliferation was evaluated by counting the cells in a Malassez cell. For this purpose, the supernatant was removed, the cells were trypsinized (10 min at 37° C.) and culture medium was added to them before they were counted.

[4] = Encapsulation of the nucleic acid INV-Val13 in nanoparticles of PLA50(30)-PEG(2)
Text: The nanoparticles used in this example are diblock copolymers consisting of a poly(D,L-lactic acid) linked via an ester bond to a poly(ethylene glycol): PLAp(M)-PEG(N) where M and N are, respectively, the average molecular masses (in kD) of the PLA and the PEG, and p is the percentage of L-lactic acid. The 2 types of nanoparticles used are PLA50(30)-PEG(2) and PLA50(30)-PEG(5). These copolymers may be synthesized by any technique known to a person skilled in the art (see, for example, EP 520,889).
The nucleic acids were treated with phage T4 polynucleotide kinase (Biolabs) in the presence of [γ-^32 P]ATP (Amersham) in a kinase buffer. After 30 min of incubation at 37° C., the nucleic acid was separated from unreacted ATP by application to a Sephadex G25 column (Quick Spin) and centrifugation.
This Example describes the encapsulation of the nucleic acid INV-Val13 in a nanoparticle of PLA50 (30)-PEG(2) in the presence or absence of oligopeptide (LKKL)10 (SEQ ID NO:6).
The polymer used, (PLA50(30)-PEG(2)), was solubilized in 1 ml of acetone at a concentration of 10 g/l. The isotopic dilution of the nucleic acid (final concentration 10^-5 M) was added, followed by the oligopeptide (at a concentration such that R=1). The organic solution obtained was then poured dropwise into 5 ml of an aqueous solution (50 mM Tris-HCl buffer pH 7.4) with stirring. […]

[5] = 50 mM phosphate buffer/0.2 M NaCl

secondary structure (dichroic spectra) ([1]; 50 mM phosphate buffer) | secondary structure (dichroic spectra) [1, 5] | secondary structure (dichroic spectra) ([1]; Water/nucleic acid) | conformation in saline solution [1] | secondary structure (dichroic spectra) ([1]; water) | conformation in water ([1]; water) | Molecule | further results
α Helix | α Helix | α Helix | α-helical | unstructured | unstructured | CC(C)C[C@H](NC(=O)[C@H](CCCCN)NC(=O)[C@H](CCCCN)NC(=O)[C@H](CC(C)C)NC(=O)[C@H](CC(C)C)NC(=O)[C@H](CCCCN)NC(=O)[C@H](CCCCN)NC(=O)[C@H](CC(C)C)NC(=O)[C@H](CC(C)C)NC(=O)[C@H](CCCCN)NC(=O)[C@H](CCCCN)NC(=O)[C@H](CC(C)C)NC(=O)[C@H](CC(C)C)NC(=O)[C@H](CCCCN)NC(=O)[C@H](CCCCN)NC(=O)[C@H](CC(C)C)NC(=O)[C@H](CC(C)C)NC(=O)[C@H](CCCCN)NC(=O)[C@H](CCCCN)NC(=O)[C@H](CC(C)C)NC(=O)[C@H](CC(C)C)NC(=O)[C@H](CCCCN)NC(=O)[C@H](CCCCN)NC(=O)[C@H](CC(C)C)NC(=O)[C@H](CC(C)C)NC(=O)[C@H](CCCCN)NC(=O)[C@H](CCCCN)NC(=O)[C@H](CC(C)C)NC(=O)[C@H](CC(C)C)NC(=O)[C@H](CCCCN)NC(=O)[C@H](CCCCN)NC(=O)[C@H](CC(C)C)NC(=O)[C@H](CC(C)C)NC(=O)[C@H](CCCCN)NC(=O)[C@H](CCCCN)NC(=O)[C@H](CC(C)C)NC(=O)[C@H](CC(C)C)NC(=O)[C@H](CCCCN)NC(=O)[C@H](CCCCN)NC(=O)[C@@H](N)CC(C)C)C(=O)O [(LKKL)10, (H)-(Leucine-Lysine-Lysine-Leucine)10 -(OH)] (H-LKKLLKKLLKKLLKKLLKKLLKKLLKKLLKKLLKKLLKKL-OH) | solubility (physchem): 50 mg/mL (≈ 10.3 mM)
β Sheet | β Sheet | β Sheet | β-sheet | unstructured | unstructured | CC(C)C[C@H](NC(=O)[C@H](CCCCN)NC(=O)[C@H](CC(C)C)NC(=O)[C@H](CCCCN)NC(=O)[C@H](CC(C)C)NC(=O)[C@H](CCCCN)NC(=O)[C@H](CC(C)C)NC(=O)[C@H](CCCCN)NC(=O)[C@H](CC(C)C)NC(=O)[C@H](CCCCN)NC(=O)[C@H](CC(C)C)NC(=O)[C@H](CCCCN)NC(=O)[C@H](CC(C)C)NC(=O)[C@H](CCCCN)NC(=O)[C@H](CC(C)C)NC(=O)[C@H](CCCCN)NC(=O)[C@H](CC(C)C)NC(=O)[C@H](CCCCN)NC(=O)[C@H](CC(C)C)NC(=O)[C@H](CCCCN)NC(=O)[C@H](CC(C)C)NC(=O)[C@H](CCCCN)NC(=O)[C@H](CC(C)C)NC(=O)[C@H](CCCCN)NC(=O)[C@H](CC(C)C)NC(=O)[C@H](CCCCN)NC(=O)[C@H](CC(C)C)NC(=O)[C@H](CCCCN)NC(=O)[C@H](CC(C)C)NC(=O)[C@H](CCCCN)NC(=O)[C@H](CC(C)C)NC(=O)[C@H](CCCCN)NC(=O)[C@H](CC(C)C)NC(=O)[C@H](CCCCN)NC(=O)[C@H](CC(C)C)NC(=O)[C@H](CCCCN)NC(=O)[C@H](CC(C)C)NC(=O)[C@H](CCCCN)NC(=O)[C@@H](N)CC(C)C)C(=O)N[C@@H](CCCCN)C(=O)O [(LKLK)10, (H)-(Leucine-Lysine-Leucine-Lysine)10 -(OH)] (H-LKLKLKLKLKLKLKLKLKLKLKLKLKLKLKLKLKLKLKLK-OH) | solubility [2]: 100 mg/mL (≈ 20.6 mM)

Second part, the molecule before the results:

Molecule | secondary structure (dichroic spectra) ([1]; 50 mM phosphate buffer) | secondary structure (dichroic spectra) [1, 5] | secondary structure (dichroic spectra) ([1]; Water/nucleic acid) | conformation in saline solution [1] | secondary structure (dichroic spectra) ([1]; water) | conformation in water ([1]; water) | further results
CC(C)C[C@H](NC(=O)[C@H](CCCCN)NC(=O)[C@H](CCCCN)NC(=O)[C@@H]1CCCN1C(=O)[C@H](CC(C)C)NC(=O)[C@H](CCCCN)NC(=O)[C@H](CCCCN)NC(=O)[C@@H]1CCCN1C(=O)[C@H](CC(C)C)NC(=O)[C@H](CCCCN)NC(=O)[C@H](CCCCN)NC(=O)[C@@H]1CCCN1C(=O)[C@H](CC(C)C)NC(=O)[C@H](CCCCN)NC(=O)[C@H](CCCCN)NC(=O)[C@@H]1CCCN1C(=O)[C@H](CC(C)C)NC(=O)[C@H](CCCCN)NC(=O)[C@H](CCCCN)NC(=O)[C@@H]1CCCN1C(=O)[C@H](CC(C)C)NC(=O)[C@H](CCCCN)NC(=O)[C@H](CCCCN)NC(=O)[C@@H]1CCCN1C(=O)[C@H](CC(C)C)NC(=O)[C@H](CCCCN)NC(=O)[C@H](CCCCN)NC(=O)[C@@H]1CCCN1C(=O)[C@H](CC(C)C)NC(=O)[C@H](CCCCN)NC(=O)[C@H](CCCCN)NC(=O)[C@@H]1CCCN1C(=O)[C@H](CC(C)C)NC(=O)[C@H](CCCCN)NC(=O)[C@H](CCCCN)NC(=O)[C@@H]1CCCN1C(=O)[C@H](CC(C)C)NC(=O)[C@H](CCCCN)NC(=O)[C@H](CCCCN)NC(=O)[C@@H]1CCCN1)C(=O)O [(PKKL)10, (H)-(Proline-Lysine-Lysine-Leucine)10 -(OH), reference compound] (H-PKKLPKKLPKKLPKKLPKKLPKKLPKKLPKKLPKKLPKKL-OH) | unstructured | unstructured | unstructured | not structured | unstructured | – | –
Polylysine [reference compound] | – | – | – | not structured | – | – | –
3'-CGCGGCAGCCAC-5' (chemistry not given here; listed 3' to 5') [AS-Val12] | – | – | – | – | – | – | inhibition of cell proliferation [3]: 42%
3'-CACACCGACGGCG-5' (chemistry not given here; listed 3' to 5') [INV-Val13] | – | – | – | – | – | – | encapsulation yield of INV-Val13 in the nanoparticle ([4]; in the presence of oligopeptide (LKKL)10, R=1, nucleic acid 10^-5 M): 56%; encapsulation yield of INV-Val13 in the nanoparticle ([4]; without the oligopeptide, nucleic acid 10^-5 M): 5%
